Data set [1] can be described thus: Lipophilicity, log P of the compound. Conditions: octanol/water. It counts as physicochemical.
Data set [2] relates to Mycobacterium tuberculosis. Kind of data set: Antimicrobial activity against Mycobacterium tuberculosis H37Rv ATCC 27294 after 28 days by agar dilution method. It counts as functional. Conditions: H37Rv ATCC 27294, 672 h. For orientation: In agar dilution the substance is mixed into plates at graded concentrations.

Results on 19 compounds are retold here after ChEMBL document CHEMBL1795317, “Synthesis and antitubercular evaluation of amidoalkyl dibenzofuranols and 1H-benzo[2,3]benzofuro[4,5-e][1,3]oxazin-3(2H)-ones” (Bioorg Med Chem Lett, 2011).

SMILES strings stand for the structures. Values after ≈ are worked out from the molar mass of the structure shown.

The logP is the decadic logarithm of the partition coefficient of the neutral form, usually between octanol and water. By MIC is commonly meant the smallest concentration in the dilution series that meets the test's criterion for growth inhibition.

Turning to `O=C1NC(c2ccc(Cl)cc2)c2c(ccc3oc4ccccc4c23)O1` (stereo not given), the log partition coefficient (logP) in data set [1] amounted to 4.16. The compound also gave an MIC in data set [2] of 1.56 µg/mL (≈ 4.46 µM).

For `CC(=O)NC(c1ccc(Br)cc1)c1c(O)ccc2oc3ccccc3c12` (stereo not given), in data set [1], the logP is 3.83. 6.25 µg/mL (≈ 15.2 µM) was the least that counted as inhibitory in data set [2] (MIC).

`NC(=O)c1cnccn1` [PYRAZINAMIDE] displayed an MIC in data set [2] of 50 µg/mL (≈ 406 µM).

In data set [2], `NNC(=O)c1ccncc1` [ISONIAZID] displayed an MIC of 0.1 µg/mL (≈ 0.729 µM).

Compound `COc1ccc(C(NC(C)=O)c2c(O)ccc3oc4ccccc4c23)cc1` (stereo not given) displayed a logP in data set [1] of 2.87. Moreover, in data set [2], the lowest concentration to inhibit growth (MIC) was 6.25 µg/mL (≈ 17.3 µM).

Consider `COc1ccc(C2NC(=O)Oc3ccc4oc5ccccc5c4c32)cc1` (stereo not given), for which, in data set [1], the lipophilicity (logP) turned out to be 3.48. For the same compound, in data set [2], the MIC was 6.25 µg/mL (≈ 18.1 µM).

The compound `O=C1NC(c2ccc(Br)cc2)c2c(ccc3oc4ccccc4c23)O1` (stereo not given) yielded a logP in data set [1] of 4.43. The compound further returned an MIC in data set [2] of 1.56 µg/mL (≈ 3.96 µM).

In data set [1], `COc1cc(C(NC(C)=O)c2c(O)ccc3oc4ccccc4c23)cc(OC)c1OC` (stereo not given) returned a logP of 2.62. In data set [2], this compound showed an MIC of 12.5 µg/mL (≈ 29.7 µM).

In data set [1], `O=C1NC(c2ccccc2)c2c(ccc3oc4ccccc4c23)O1` (stereo not given) showed a logP of 3.61. Moreover, the MIC in data set [2] amounted to 3.13 µg/mL (≈ 9.93 µM).

For `COc1cc(C2NC(=O)Oc3ccc4oc5ccccc5c4c32)cc(OC)c1OC` (stereo not given), the logP in data set [1] amounted to 3.23. In data set [2], the MIC was 12.5 µg/mL (≈ 30.8 µM).

`COc1cc(C(NC(=O)c2ccccc2)c2c(O)ccc3oc4ccccc4c23)cc(OC)c1OC` (stereo not given) showed a logP in data set [1] of 4.52. In data set [2], this compound had an MIC of 12.5 µg/mL (≈ 25.9 µM).

Regarding `COc1cc(C(NC(N)=O)c2c(O)ccc3oc4ccccc4c23)cc(OC)c1OC` (stereo not given), the logP in data set [1] was determined as 2.29. The compound also showed an MIC in data set [2] of 12.5 µg/mL (≈ 29.6 µM).

As for `O=C(NC(c1ccc(Cl)cc1)c1c(O)ccc2oc3ccccc3c12)c1ccccc1` (stereo not given), the logP in data set [1] was determined as 5.46. This compound also returned an MIC in data set [2] of 12.5 µg/mL (≈ 29.2 µM).

In the case of `CC(=O)NC(c1ccccc1)c1c(O)ccc2oc3ccccc3c12` (stereo not given), the logP in data set [1] was 3. The lowest concentration to inhibit growth in data set [2] (MIC) was 6.25 µg/mL (≈ 18.9 µM).

In data set [1], `COc1ccc(C(NC(N)=O)c2c(O)ccc3oc4ccccc4c23)cc1` (stereo not given) yielded a logP of 2.55. Moreover, the MIC in data set [2] stood at 6.25 µg/mL (≈ 17.2 µM).

With `CC(=O)NC(c1ccc(Cl)cc1)c1c(O)ccc2oc3ccccc3c12` (stereo not given), the logP in data set [1] came to 3.56. This compound also yielded an MIC in data set [2] of 6.25 µg/mL (≈ 17.1 µM).

Turning to `CC[C@@H](CO)NCCN[C@@H](CC)CO` [ETHAMBUTOL], in data set [2], inhibition of growth (MIC) required 3.13 µg/mL (≈ 15.3 µM).

In turn, `NC(=O)NC(c1ccc(Br)cc1)c1c(O)ccc2oc3ccccc3c12` (stereo not given) returned a logP in data set [1] of 3.5. This compound also returned an MIC in data set [2] of 3.13 µg/mL (≈ 7.61 µM).

In data set [1], `NC(=O)NC(c1ccc(Cl)cc1)c1c(O)ccc2oc3ccccc3c12` (stereo not given) yielded a logP of 3.23. In addition, in data set [2], the MIC amounted to 3.13 µg/mL (≈ 8.53 µM).
